Experimental findings from patent US4446151A, “Decarboxylase-inhibiting fluorinated pentane diamine derivatives” (Merrell Toraude et Compagnie, priority 1982, dated 1984) are described below.

The structures appear in SMILES notation.

In the assay the target is T1, ornithine decarboxylase (ODC) (Rattus norvegicus, UniProt P09057).
T1 construct: is prepared from the livers of rats which have been injected with thioacetamide; from tissue; host or cells: liver of rats injected with thioacetamide (150 mg/kg, 18 h before sacrifice); purified about ten fold by acid treatment at pH 4.6
T1 sequence (P09057 1-461): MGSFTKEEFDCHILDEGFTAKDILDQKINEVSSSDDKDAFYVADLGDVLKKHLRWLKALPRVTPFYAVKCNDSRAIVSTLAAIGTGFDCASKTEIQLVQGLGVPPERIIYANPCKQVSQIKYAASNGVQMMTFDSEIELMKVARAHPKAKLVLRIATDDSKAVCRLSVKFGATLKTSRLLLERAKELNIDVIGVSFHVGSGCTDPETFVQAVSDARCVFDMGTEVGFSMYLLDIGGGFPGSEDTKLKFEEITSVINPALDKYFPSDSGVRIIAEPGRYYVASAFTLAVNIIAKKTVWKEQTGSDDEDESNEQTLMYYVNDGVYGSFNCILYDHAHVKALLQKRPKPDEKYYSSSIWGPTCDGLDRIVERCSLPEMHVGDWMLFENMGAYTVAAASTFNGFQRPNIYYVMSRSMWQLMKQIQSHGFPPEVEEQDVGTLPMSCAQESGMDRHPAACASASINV
Kind of assay: in vitro inhibition (time-dependent inactivation) of ornithine decarboxylase (ODC) prepared from rat liver. Format: biochemical. As to conditions: 37° C.; for .tau.50 (half-life, at infinite concentration of inhibitor): pH 7.1, Kitz and Wilson; for Half-life (t1/2) at 10 μM: inhibitor at 10 μM, pH 7.1. As to the method: At different times 50 μl aliquots are transferred into a 1 mL assay medium containing sodium phosphate (30 mM, pH 7.1), dithiothreitol (5 mM), pyridoxal phosphate (0.1 mM), L-ornithine (0.081 μmol), and DL-[1-^14 C]ornithine (0.043 μmol, 58 Ci/mol, Amersham) in a closed vessel in which a filter paper moistered with 50 μl hyamine hydroxide (1M) is fitted. The reaction is allowed to proceed for 60 min at 37° C. and then terminated by addition of 0.5 ml of 40% trichloroacetic acid. After an additional 30 min, the CO2 absorbed on the filter paper is counted in a standard scintillation cocktail.

As to `NCC(=O)CC(N)(CF)C(=O)O` (stereo not shown) [A, 2-fluoromethyl-2,5-diamino-4-oxo-pentanoic acid], the “.tau.50 (half-life, at infinite concentration of inhibitor)” value was 3.1 min and the “Half-life (t1/2) at 10 μM” value was 4.5 min.
On the same counts, the results for `C=C(CN)CC(N)CF` (stereo not shown) [B, 1-fluoro-2,5-diamino-4-methylene-pentane] are 2.6 min and 6.4 min.
On the same counts, the results for `NCC(=O)CC(N)CF` (stereo not shown) [C, 1-fluoro-2,5-diamino-4-oxo-pentane] are 1.6 min and 2.8 min.
On the same counts, the results for `C=C(CN)CC(N)(CF)C(=O)O` (stereo not shown) [D, 2-fluoromethyl-2,5-diamino-4-methylene-pentanoic acid] are 3.6 min and 23 min.
`C=C(CN)CC(N)C(F)F` (stereo not shown) [E, 1,1-difluoro-2,5-diamino-4-methylene-pentane]: the “.tau.50 (half-life, at infinite concentration of inhibitor)” value was 2.2 min and the “Half-life (t1/2) at 10 μM” value stood at 14 min.
